pIC50: −log10 of the molar value. Where a name gives a salt, the structure may show the parent alone.
Target: Proton Pump (H^+/K^+-ATPase) (Sus scrofa, UniProt P19156)
Test: Inhibitory effects on proton pump (H^+/K^+-ATPase) activity
Assay type: biochemical
Conditions: hog gastric vesicles; K^+ stimulated H^+/K^+-ATPase activity; 30 minutes at 37° C.

Proton Pump (H^+/K^+-ATPase), sequence (P19156 2-1034 limits assumed): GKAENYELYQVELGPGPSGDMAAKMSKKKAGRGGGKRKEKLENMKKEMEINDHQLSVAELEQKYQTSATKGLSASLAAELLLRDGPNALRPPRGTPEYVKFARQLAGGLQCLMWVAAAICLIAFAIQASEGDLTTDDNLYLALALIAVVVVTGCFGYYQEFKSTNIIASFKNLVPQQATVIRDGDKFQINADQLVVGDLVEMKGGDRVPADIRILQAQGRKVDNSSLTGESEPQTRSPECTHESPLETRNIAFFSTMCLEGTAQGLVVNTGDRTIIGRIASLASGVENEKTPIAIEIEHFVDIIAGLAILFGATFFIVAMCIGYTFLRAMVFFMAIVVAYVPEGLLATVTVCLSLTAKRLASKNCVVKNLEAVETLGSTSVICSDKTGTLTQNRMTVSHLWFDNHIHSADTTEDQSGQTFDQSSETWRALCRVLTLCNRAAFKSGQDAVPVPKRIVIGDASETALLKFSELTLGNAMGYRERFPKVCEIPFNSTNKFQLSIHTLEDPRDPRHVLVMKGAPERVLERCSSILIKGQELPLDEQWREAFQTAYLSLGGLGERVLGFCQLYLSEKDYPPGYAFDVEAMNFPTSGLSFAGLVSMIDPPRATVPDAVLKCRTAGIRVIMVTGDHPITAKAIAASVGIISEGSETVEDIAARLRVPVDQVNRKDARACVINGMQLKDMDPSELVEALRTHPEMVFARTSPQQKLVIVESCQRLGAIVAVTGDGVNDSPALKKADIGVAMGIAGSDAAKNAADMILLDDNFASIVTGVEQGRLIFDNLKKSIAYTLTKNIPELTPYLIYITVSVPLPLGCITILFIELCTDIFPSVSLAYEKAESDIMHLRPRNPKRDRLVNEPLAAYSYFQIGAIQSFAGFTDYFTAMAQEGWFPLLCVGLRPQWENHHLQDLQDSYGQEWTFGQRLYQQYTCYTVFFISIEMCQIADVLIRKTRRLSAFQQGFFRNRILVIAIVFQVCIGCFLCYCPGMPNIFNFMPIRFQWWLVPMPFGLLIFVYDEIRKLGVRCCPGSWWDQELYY
Proton Pump (H^+/K^+-ATPase), sequence (P18434 whole entry partner): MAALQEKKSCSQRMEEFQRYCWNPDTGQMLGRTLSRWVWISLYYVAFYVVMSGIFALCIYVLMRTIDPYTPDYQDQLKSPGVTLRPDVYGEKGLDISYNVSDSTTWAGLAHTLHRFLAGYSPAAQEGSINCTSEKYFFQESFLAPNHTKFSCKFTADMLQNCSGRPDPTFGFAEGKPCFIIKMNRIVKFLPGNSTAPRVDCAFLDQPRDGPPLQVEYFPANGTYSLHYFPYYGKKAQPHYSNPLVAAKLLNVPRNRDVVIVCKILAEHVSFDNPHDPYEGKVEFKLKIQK

| SMILES | pIC50 |
| --- | --- |
| CC(C)=CCn1c(C)c(C)c2ccnc(N3CCc4ccc(Cl)cc4C3C)c21 (stereo not drawn) [Example 534, 7-chloro-2-[2,3-dimethyl-1-(3-methylbut-2-enyl)-1H-pyrrolo[2,3-c]pyridin-7-yl]-1-methyl-1,2,3,4-tetrahydroisoquinoline hydrochloride] | 6.40 |
| COc1cccc(Cn2c(C)c(C)c3ccnc(COc4ccc(Cl)cc4)c32)c1 [Example 45, 7-(4-chlorophenoxymethyl)-1-(3-methoxybenzyl)-2,3-dimethyl-1H-pyrrolo[2,3-c]pyridine hydrochloride] | 7.15 |
| Cc1c(C)n(Cc2cccc(F)c2)c2c(N3CCc4ccccc4C3)nc(C(=O)N3CCN(C)CC3)cc12 [Example 832, [7-(3,4-dihydro-1H-isoquinolin-2-yl)-1-(3-fluorobenzyl)-2,3-dimethyl-1H-pyrrolo[2,3-c]pyridin-5-yl]-(4-methylpiperazin-1-yl)-methanone hydrochloride] | 7.51 |
| Cc1c(C)n(CCC(C)Cl)c2c(N3CCc4ccccc4C3)nccc12 (stereo not drawn) [Example 513, 1-(3-chlorobutyl)-7-(1,2,3,4-tetrahydroisoquinolin-2-yl)-2,3-dimethyl-1H-pyrrolo[2,3-c]pyridine hydrochloride] | 7.13 |
| COc1cccc(Cn2c(C)c(C)c3cc(CN4CCN(C)CC4)nc(N4CCc5ccccc5C4)c32)c1 [Example 876, 2-[1-(3-methoxybenzyl)-2,3-dimethyl-5-(4-methylpiperazin-1-ylmethyl)-1H-pyrrolo[2,3-c]pyridin-7-yl]-1,2,3,4-tetrahydroisoquinoline hydrochloride] | 7.00 |
| COCCn1c(C)c(C)c2ccnc(N3CCc4ccc(F)cc4C3C)c21 (stereo not drawn) [Example 546, 7-fluoro-2-[1-(2-methoxyethyl)-2,3-dimethyl-1H-pyrrolo[2,3-c]pyridin-7-yl]-1-methyl-1,2,3,4-tetrahydroisoquinoline hydrochloride] | 6.60 |
| CCC1c2ccccc2CCN1c1nccc2c(C)c(C)n(COC)c12 (stereo not drawn) [Example 584, 1-ethyl-2-(1-methoxymethyl-2,3-dimethyl-1H-pyrrolo[2,3-c]pyridin-7-yl)-1,2,3,4-tetrahydroisoquinoline hydrochloride] | 6.48 |
| Cc1c(C)n(CC2CC2)c2c(N3CCc4ccccc4C3)nc(C(=O)N3CCCCC3)cc12 [Example 793, [1-cyclopropylmethyl-7-(3,4-dihydro-1H-isoquinolin-2-yl)-2,3-dimethyl-1H-pyrrolo[2,3-c]pyridin-5-yl]-(piperidin-1-yl)-methanone hydrochloride] | 6.93 |
| CCCn1c(C)c(C)c2cc(C(=O)N3CCCCC3)nc(N3CCc4ccccc4C3)c21 [Example 801, [7-(3,4-dihydro-1H-isoquinolin-2-yl)-2,3-dimethyl-1-propyl-1H-pyrrolo[2,3-c]pyridin-5-yl]-(piperidin-1-yl)-methanone hydrochloride] | 6.80 |
| CCCn1c(C)c(C)c2cc(C(=O)N3CCOCC3)nc(N3CCc4ccccc4C3)c21 [Example 781, [7-(3,4-dihydro-1H-isoquinolin-2-yl)-2,3-dimethyl-1-propyl-1H-pyrrolo[2,3-c]pyridin-5-yl]-(morpholin-4-yl)-methanone hydrochloride] | 7.41 |
| Cc1c(C)n(Cc2ccccc2)c2c(NCc3ccc(F)cc3)nc(C(=O)N3CCCCC3)cc12 [Example 908, [1-benzyl-7-(4-fluorobenzylamino)-2,3-dimethyl-1H-pyrrolo[2,3-c]pyridin-5-yl]-(piperidin-1-yl)-methanone hydrochloride] | 6.42 |
| Cc1c(C)n(Cc2ccccc2F)c2c(N3CCc4ccccc4C3)nccc12 [Example 483, 1-(2-fluorobenzyl)-7-(1,2,3,4-tetrahydroisoquinolin-2-yl)-2,3-dimethyl-1H-pyrrolo[2,3-c]pyridine hydrochloride] | 6.48 |
| Cc1c(C)n(Cc2ccccc2)c2c(NCc3ccc(F)cc3)nc(C(=O)N3CCOCC3)cc12 [Example 909, [1-benzyl-7-(4-fluorobenzylamino)-2,3-dimethyl-1H-pyrrolo[2,3-c]pyridin-5-yl]-(morpholin-4-yl)-methanone hydrochloride] | 7.05 |
| Cc1c(C)n(Cc2cccc(F)c2)c2c(N3CCc4ccccc4C3)nc(C(=O)N3CCCCC3)cc12 [Example 796, [7-(3,4-dihydro-1H-isoquinolin-2-yl)-1-(3-fluorobenzyl)-2,3-dimethyl-1H-pyrrolo[2,3-c]pyridin-5-yl]-(piperidin-1-yl)-methanone hydrochloride] | 6.52 |
| CCn1c(C)c(C)c2cc(C(=O)N3CCCC(O)C3)nc(N3CCc4ccccc4C3)c21 (stereo not drawn) [Example 807, [7-(3,4-dihydro-1H-isoquinolin-2-yl)-1-ethyl-2,3-dimethyl-1H-pyrrolo[2,3-c]pyridin-5-yl]-(3-hydroxypiperidin-1-yl)-methanone hydrochloride] | 7.64 |
| CCNC(=O)c1cc2c(C)c(C)n(Cc3ccccc3)c2c(N2CCc3ccccc3C2)n1 [Example 765, 1-benzyl-7-(3,4-dihydro-1H-isoquinolin-2-yl)-2,3-dimethyl-N-ethyl-1H-pyrrolo[2,3-c]pyridin-5-carboxamide] | 6.45 |
| CCn1c(C)c(C)c2cc(C(=O)N3CCCCC3)nc(N3CCc4ccccc4C3)c21 [Example 787, [7-(3,4-dihydro-1H-isoquinolin-2-yl)-1-ethyl-2,3-dimethyl-1H-pyrrolo[2,3-c]pyridin-5-yl]-(piperidin-1-yl)-methanone hydrochloride] | 8.96 |
| Cc1c(C)n(CC2CC2)c2c(COc3ccc(F)cc3F)nccc12 [Example 35, 1-cyclopropylmethyl-7-(2,4-difluorophenoxymethyl)-2,3-dimethyl-1H-pyrrolo[2,3-c]pyridine hydrochloride] | 6.07 |

The remaining lines, values ahead:

| pIC50 | SMILES |
| --- | --- |
| 6.89 | CSc1ccc(-c2nccc3c(C)c(C)n(Cc4ccccc4)c23)cc1 [Example 268, 1-benzyl-2,3-dimethyl-7-(4-methylsulfanylphenyl)-1H-pyrrolo[2,3-c]pyridine hydrochloride] |
| 7.05 | Cc1c(C)n(Cc2cccc(F)c2)c2c(N(C)Cc3ccc(F)cc3)nccc12 [Example 159, 1-(3-fluorobenzyl)-7-[N-(4-fluorobenzyl)-N-methyl]amino-2,3-dimethyl-1H-pyrrolo[2,3-c]pyridine hydrochloride] |
| 6.62 | C=CCn1c(C)c(C)c2ccnc(N(C)Cc3ccc(F)cc3)c21 [Example 140, 1-allyl-7-[N-(4-fluorobenzyl)-N-methyl]amino-2,3-dimethyl-1H-pyrrolo[2,3-c]pyridine hydrochloride] |
| 6.46 | C#CCn1c(C)c(C)c2ccnc(-c3ccc(C)cc3)c21 [Example 280, 2,3-dimethyl-1-(prop-2-ynyl)-7-(p-tolyl)-1H-pyrrolo[2,3-c]pyridine hydrochloride] |
| 6.51 | C=Cc1ccc(-c2nccc3c(C)c(C)n(CCC(C)C)c23)cc1 [Example 256, 2,3-dimethyl-1-(3-methylbutyl)-7-(4-vinylphenyl)-1H-pyrrolo[2,3-c]pyridine hydrochloride] |
| 6.92 | C=CCn1c(C)c(C)c2ccnc(C=Cc3ccccc3)c21 [Example 416, 1-allyl-2,3-dimethyl-7-styryl-1H-pyrrolo[2,3-c]pyridine hydrochloride] |
| 6.82 | C#CCn1c(C)c(C)c2ccnc(-c3ccc(OC)cc3)c21 [Example 354, 7-(4-methoxyphenyl)-2,3-dimethyl-1-(prop-2-ynyl)-1H-pyrrolo[2,3-c]pyridine hydrochloride] |
| 6.66 | CSc1ccc(-c2nccc3c(C)c(C)[nH]c23)cc1 [Example 262, 2,3-dimethyl-7-(4-methylsulfanylphenyl)-1H-pyrrolo[2,3-c]pyridine] |
| 6.35 | CSc1ccc(-c2nccc3c(C)c(C)n(CC4CC4)c23)cc1 [Example 270, 1-cyclopropylmethyl-2,3-dimethyl-7-(4-methylsulfanylphenyl)-1H-pyrrolo[2,3-c]pyridine hydrochloride] |
| 6.57 | C=Cc1ccc(-c2nccc3c(C)c(C)n(Cc4ccc5ccccc5c4)c23)cc1 [Example 257, 2,3-dimethyl-1-(naphthalen-2-ylmethyl)-7-(4-vinylphenyl)-1H-pyrrolo[2,3-c]pyridine hydrochloride] |
| 6.42 | C=CCCn1c(C)c(C)c2ccnc(N(C)Cc3ccc(F)cc3)c21 [Example 157, 1-(but-3-enyl)-7-[N-(4-fluorobenzyl)-N-methyl]amino-2,3-dimethyl-1H-pyrrolo[2,3-c]pyridine hydrochloride] |
| 6.42 | Cc1c(C)n(Cc2ccccc2)c2c(-c3ccc(Cl)cc3)nccc12 [Example 301, 1-benzyl-7-(4-chlorophenyl)-2,3-dimethyl-1H-pyrrolo[2,3-c]pyridine hydrochloride] |
| 6.89 | Cc1c(C)n(Cc2ccccc2)c2c(N3CCc4ccc(F)cc4C3C)nccc12 (stereo not drawn) [Example 547, 2-(1-benzyl-2,3-dimethyl-1H-pyrrolo[2,3-c]pyridin-7-yl)-7-fluoro-1-methyl-1,2,3,4-tetrahydroisoquinoline hydrochloride] |
| 6.57 | Cc1c(C)n(Cc2ccccc2F)c2c(CCc3ccccc3)nccc12 [Example 450, 1-(2-fluorobenzyl)-2,3-dimethyl-7-phenethyl-1H-pyrrolo[2,3-c]pyridine hydrochloride] |
| 7.14 | Cc1c(C)n(Cc2cccc(F)c2)c2c(-c3ccc4ccccc4c3)nccc12 [Example 405, 1-(3-fluorobenzyl)-2,3-dimethyl-7-(naphthalen-2-yl)-1H-pyrrolo[2,3-c]pyridine hydrochloride] |
| 6.38 | CSc1ccc(-c2nccc3c(C)c(C)n(Cc4ccc(F)cc4)c23)cc1 [Example 274, 2,3-dimethyl-1-(4-fluorobenzyl)-7-(4-methylsulfanylphenyl)-1H-pyrrolo[2,3-c]pyridine hydrochloride] |
| 5.84 | COCCn1c(C)c(C)c2ccnc(COc3ccc(F)cc3F)c21 [Example 34, 7-(2,4-difluorophenoxymethyl)-1-(2-methoxyethyl)-2,3-dimethyl-1H-pyrrolo[2,3-c]pyridine hydrochloride] |
| 6.64 | C=CCn1c(C)c(C)c2ccnc(CCc3ccccc3)c21 [Example 448, 1-allyl-2,3-dimethyl-7-phenethyl-1H-pyrrolo[2,3-c]pyridine hydrochloride] |

From patent US7662832B2, “Pyrrolo[2,3-c]pyridine derivatives and processes for the preparation thereof” (priority 2004, dated 2010)
